One data set relates to Micrococcus luteus. Description: Heat stability (residual inhibitory activity). The data set is classed as physicochemical. Conditions: for Inhibition zone after heat treatment: indicator Micrococcus luteus, titre 800 AU/ml.
For data set [1], the system named is S. salivarius strain NU10. Description: Salivaricin induction assay, strain NU10. Conditions: 0.05 ml test sample (titre 4 AU/ml) added to washed cells in M17YESUCa, 18 h anaerobic; well diffusion assay, induced vs control tube. The data set is classed as cell-based, Streptococcus salivarius. The source says: (§1) The bacteriocin-inducing activities present in crude extracts of S. salivarius strains NU10, YU10, K12 and in FPLC-purified salivaricin 9 peptide fractions having anti-Micrococcus luteus activity was investigated in this study. The crude extracts of producer cells designated as BLIS-NU10, BLIS-YU10 and BLIS-K12 were isolated by acidic methanol extraction of the producer cells as described previously. These crude BLIS extracts had the potential to contain at least two lantibiotics on the basis of PCR assessment for their content of lantibiotic structural genes. Strains NU10 and YU10 had the structural genes for salivaricin 9 and salivaricin A and strain K12 had salivaricin A and salivaricin B structural genes. […] Colonies from an 18 h culture of each S. salivarius strain NU10, YU10 and K12 grown anaerobically on BACa agar was used to inoculate 10 ml of M17YESUCa broth and incubated again under the same conditions. The cells were then collected by centrifugation at 18000 x g for 5 min and washed three times in saline buffer to reduce the levels of cell surface-associated lantibiotic before suspending in 10 ml of the same buffer. […] Induction of salivaricin 9 or salivaricin A production was recorded as inhibitory zones surrounding samples from the induced tubes but not the control tubes. […]

For data set [2], the system named is Micrococcus luteus ATCC10240. Description: Flow cytometry analysis of membrane disruption (propidium iodide). The data set is classed as cell-based. Conditions: PI 25 µM, 30 minutes at 37°C. The procedure: For membrane integrity assay using the dye propidium iodide (PI), cultures of Micrococcus luteus ATCC10240 were grown over night at 37°C in THB supplemented with 0.5% glucose (THBG) and then diluted with fresh THBG to an OD600 of 0.1. The cells were centrifuged at 4000 x g for 5 minutes at 4°C and washed twice with washing buffer (2 mM HEPES + 2 mM glucose) before re-suspending in the same buffer and adjusting to OD600 0.1. The cells were exposed to salivaricin 9 (12, 20 µg/ml) or nisin (20 µg/ml) (Sigma) and PI (final concentration 25 µM) before incubating for 30 minutes at 37°C. Nuclease-Free Water (Promega, USA) was added instead of antibiotic and served as a negative control. Samples were analyzed using BD FACSCanto^TM II flow cytometer using excitation at 488 nm and with the standard filter setup. Each sample was examined in triplicate and the geometric mean fluorescence intensity (MFI) of gated cell populations was calculated (Figure 9).

For data set [3], the system named is S. salivarius strain YU10. Description: Salivaricin induction assay, strain YU10. The data set is classed as cell-based, Streptococcus salivarius. Conditions: 0.05 ml test sample (titre 4 AU/ml) added to washed cells in M17YESUCa, 18 h anaerobic; well diffusion assay, induced vs control tube.
From the text: as §1

The test system of data set [4] is Staphylococcus aureus RF122. Description: Minimal inhibitory concentration (NCCLS). The format is cell-based. Further details: key: ++++: inhibition zone >12 mm; +++: inhibition zone = 10 mm; ++: inhibition zone < 5 mm; -: No inhibition. Conditions: pure salivaricin 9, NCCLS method. The protocol:
(§2) An induced culture of S. salivarius NU10 was centrifuged at 8000 x g to pellet the cells. The cell free supernatant (CFS) was filtered through 0.2 µm sterilized cellulose membrane (Millipore) to ensure that all cell debris was removed. The filtered crude bacteriocin preparation was passed through 100 ml XAD-16 particles (Sigma) packed in a glass column. The column was washed with 400 ml of distilled water followed by 200 ml of 70% methanol before the active fraction was eluted using 200 ml of 95% methanol (adjusted to pH 2) at a flow rate of 15 ml/min. The methanol was removed using a rotary evaporator and the resulting peptide preparation was lyophilized and stored at -20°C. The lyophilized peptide pellets were dissolved in 20 mM sodium phosphate pH 5.8 (binding buffer). Then the sample was injected into a fast protein liquid chromatography (FPLC) system (ÄKTA Purifier™) using HiTrap SP FF 5ml strong cation exchanger column (GE Healthcare) equilibrated with the same buffer at a flow rate of 1 ml/min. Then the column was washed with 10X column volume of the binding buffer before salivaricin 9 was eluted using a linear gradient of 0 to 1M NaCl in 20 mM sodium phosphate buffer at pH 5.8 (Figure 4). All fractions were tested for inhibitory activity using Micrococcus luteus as the indicator. MIC values of pure salivaricin 9 against a set of bacterial indicator strains were determined by following the National Committee for Clinical Laboratory Standards (NCCLS) (Table 3).

Data set [5] concerns Bacillus cereus ATCC14579. Description: Minimal inhibitory concentration (NCCLS). The data set is classed as cell-based. More on the design: key: ++++: inhibition zone >12 mm; +++: inhibition zone = 10 mm; ++: inhibition zone < 5 mm; -: No inhibition. Conditions: pure salivaricin 9, NCCLS method. The procedure: as §2

Starred links: 1 amine or outer side, 2 acyl side, 3 side chain; linkers in the order of their positions; H or OH if unused. Positions of bridges follow the written chain, without caps; N, C: chain ends. Non-standard residues stand in square brackets, D forms with d. Residues, ends and D or L forms follow the SMILES beside them. dAbu(3S-yl) = C[C@@H]([C@@H](N[*:1])C(=O)[*:2])[*:3]; Dhb = C/C=C(\N)C(=O)O

As for `C/C=C1\NC(=O)[C@H](Cc2c[nH]c3ccccc23)NC(=O)[C@@H]2NC(=O)[C@H](C)NC(=O)[C@H](CC(C)C)NC(=O)[C@H](CC(N)=O)NC(=O)[C@@H]3CS[C@@H](C)[C@@H](NC(=O)[C@H](CC(C)C)NC(=O)[C@@H](NC(=O)[C@@H](NC(=O)CNC(=O)[C@H](CC(N)=O)NC(=O)CN)C(C)C)C(C)C)C(=O)N[C@@H](CC(C)C)C(=O)N[C@@H](C(=O)N[C@@H](Cc4c[nH]cn4)C(=O)N[C@@H](CCC(=O)O)C(=O)N3)[C@H](C)SC[C@H](NC(=O)[C@H](CCCCN)NC(=O)[C@H](CC(C)C)NC(=O)[C@H](CCCCN)NC(=O)[C@H](CCCCN)NC1=O)C(=O)N[C@H](C(=O)O)CS[C@H]2C` [Salivaricin 9] (H-GNGVVL[dAbu(3S-yl)]L[dAbu(3S-yl)]HECNLA[dAbu(3S-yl)]W[Dhb]KKLKCC-OH; thioether 7-12, 9-23, 16-24; N-terminus and C-terminus assumed), the “Inhibition zone after heat treatment” value in the data set on Micrococcus luteus (4, 20, 30, 37, 40, 50, 60, 70, 80 °C for 1 hour) is given as “++++ (inhibition zone >20 mm)”; with Micrococcus luteus (90, 100 °C for 30 min), “+++ (inhibition zone =20 mm)”; in the data set with Micrococcus luteus (121 °C for 20 min) it was “-”. Also, in the data set on Micrococcus luteus (90-100°C for 30 minutes), the “Biological stability at high temperature (in words)” value was “retained biological stability”. Further, in data set [1], the “Preparation induces inhibitor production in NU10” value is “Yes”. For the same compound, the “Propidium iodide uptake, geometric mean fluorescence intensity (MFI)” value in data set [2] (4 µg/ml (MIC)) was “did not show significant increase in the MFI”; in data set [2] (12 µg/ml (3-fold MIC), triplicate) it was “significant MFI increments”; in data set [2] (20 µg/ml, triplicate) it was “significant MFI increments”. The “Preparation induces inhibitor production in YU10” value in data set [3] is “Yes”. The “MIC of salivaricin 9” value in data set [4] and in data set [5] was “-” each time.

These data come from article PMC3797685, “Enhanced Production, Purification, Characterization and Mechanism of Action of Salivaricin 9 Lantibiotic Produced by Streptococcus salivarius NU10” (PLoS ONE, 2013).
